Data reported in patent publication US4469691A, “Hexamethylenetetramine-N-acetyl-thiazolidine-4-carboxylate, a process for its preparation and a pharmaceutical composition containing it” (Ausonia Farmaceutici s.r.l., priority 1982, dated 1984).
Where two headings read alike, the source gives them in different places.

Legend:
Swiss mice = assay: Acute oral toxicity in Swiss mice (Litchfield and Wilcoxon); format: in vivo; settings: mouse
Wistar rats = assay: Acute oral toxicity in Wistar rats (Litchfield and Wilcoxon); format: in vivo; settings: rat
Salmonella spp = assay: In vitro antibacterial activity, M.I.C., Salmonella spp; format: cell-based; settings: of 10 strains, pH 5.5
Method: Salmonella spp (10 strains)
(§1) As culture medium, Mueller Hinton Agar at pH 5.5 was used. The compounds under examination were dissolved in and diluted by sterile saline; 1 ml of the diluted solutions thus obtained was poured in Petri's dishes and 19 ml of Mueller Hinton Agar were subsequently added thereto.
(§2) The inoculation of bacteria was performed using a multi point inoculator and a 18 hour growth broth culture of each of the strains under examination. With this method the bacterial inoculum is equal to about 10^5 colony-forming units (CFU) per point. Reading of the results was performed after cultivating the plates for 18 hours at 37° C.

Pseudomonas aeruginosa = assay: In vitro antibacterial activity, M.I.C., Pseudomonas aeruginosa; format: cell-based; settings: 62.5 mcg/ml (EMTA; AFP 829 equimolar); of 10 strains; pH 5.5
Method: as §1, §2

Proteus spp = assay: In vitro antibacterial activity, M.I.C., Proteus spp; format: cell-based; settings: of 10 strains, pH 5.5
Method: Proteus spp (10 strains)
as §1, §2

E. coli = assay: In vitro antibacterial activity, M.I.C., E. coli; format: cell-based; settings: of 10 strains, pH 5.5
Method: as §1, §2

Klebsiella spp = assay: In vitro antibacterial activity, M.I.C., Klebsiella spp; format: cell-based; settings: of 7 strains, pH 5.5
Method: Klebsiella spp (7 strains)
as §1, §2

Serratia spp = assay: In vitro antibacterial activity, M.I.C., Serratia spp; format: cell-based; settings: of 5 strains, pH 5.5
Method: Serratia spp (5 strains)
as §1, §2

Citrobacter spp = assay: In vitro antibacterial activity, M.I.C., Citrobacter spp; format: cell-based; settings: of 3 strains, pH 5.5
Method: Citrobacter spp (3 strains).
as §1, §2

Staphylococcus aureus = assay: In vitro antibacterial activity, M.I.C., Staphylococcus aureus; format: cell-based; settings: of 15 strains, pH 5.5
Method: as §1, §2

Streptococcus = assay: In vitro antibacterial activity, M.I.C., Streptococcus (pyogenes); format: cell-based; settings: of 15 strains, pH 5.5
Method: as §1, §2

Enterococcus = assay: In vitro antibacterial activity, M.I.C., Enterococcus (Streptococcus faecalis); format: cell-based; settings: of 5 strains, pH 5.5
Method: as §1, §2

[1] = test system: 90 strains of different Gram-positive and Gram-negative bacterial species; assay: In vitro antibacterial activity, all 90 strains; format: cell-based, Gram-positive and Gram-negative bacteria; settings: for Antibacterial activity (in words): all microorganisms, AFP 829 versus EMTA
Method: as §1, §2

strain of Ps. aeruginosa = test system: strain of Ps. aeruginosa; set-up: species or system Sprague Dawley rats; Ps. aeruginosa; settings: rat, in vivo, ip
Method: Each group of animals received the substances i.p. in […] of sterile saline; the animals were placed in metabolic cages with free access to water. Urine samples were collected at the following intervals:
1 ml of nutrient broth at pH 5.5, containing approximately […] colony-forming units of a strain of Ps. aeruginosa sensitive to the action of both substances, was added to 1 ml of the urine or the standard solution of the two drugs dissolved in distilled water.
Standard and urine samples were sequentially diluted twofold by means of the same broth containing the microorganisms until a 1:2048 dilution was achieved.
After overnight incubation at 37° C. the maximum dilution (limit dilution) of the substances or samples inhibiting bacterial growth was determined.
Therefore the concentration of the substances in the urine samples was determined using the formula below: [formula]

male Wistar rats = assay: Mucosecretolytic activity in male Wistar rats (method of H. Mawatari); format: in vivo, rat; settings: for % increase of sodium fluorescein compared with controls: 250 mg/Kg p.o., 10 animals; for Mucosecretolytic activity (in words): oral, rats
Method: Mucosecretolytic activity was determined in male Wistar rats after AFP 829 administration given via the oral route. The method described by H. Mawatari was used for the determination [H. Mawatari, Kagoshima Daiagaku, Igaku Zasshi 27, 561 (1976)]. A drug of known activity--carboxymethylcysteine--was used as the reference standard.

liver affections = assay: Protective activity against liver affections
[2] = in vivo, po
[3] = Acute oral toxicity in Swiss mice (Litchfield and Wilcoxon); format: in vivo; settings: in vivo, mouse
[4] = Acute oral toxicity in Wistar rats (Litchfield and Wilcoxon); format: in vivo; settings: in vivo, rat
[5] = in vivo; cited from earlier work
[6] = Pharmacokinetics in laboratory animals after oral administration
[7] = 31.2 mcg/ml (EMTA; AFP 829 equimolar)
[8] = 62.5 mcg/ml (EMTA; AFP 829 equimolar)
[9] = 125 mcg/ml (EMTA; AFP 829 equimolar)
[10] = 15.6 mcg/ml (EMTA; AFP 829 equimolar)
[11] = listed as hexamethylenetetramine-N-acetyl-thiazolidine-4-carboxylate (I)
[12] = 250 mcg/ml (EMTA; AFP 829 equimolar)

| Molecule | M.I.C., cumulative number of strains inhibited (Salmonella spp; [8]) | M.I.C., cumulative number of strains inhibited (Pseudomonas aeruginosa) | M.I.C., cumulative number of strains inhibited (Proteus spp; [8]) | M.I.C., cumulative number of strains inhibited (E. coli; [8]) | M.I.C., cumulative number of strains inhibited (Klebsiella spp; [8]) | M.I.C., cumulative number of strains inhibited (Serratia spp; [8]) | M.I.C., cumulative number of strains inhibited (Serratia spp; [9]) | M.I.C., cumulative number of strains inhibited (Citrobacter spp; [8]) | M.I.C., cumulative number of strains inhibited (Staphylococcus aureus; [8]) | M.I.C., cumulative number of strains inhibited (Staphylococcus aureus; [9]) | M.I.C., cumulative number of strains inhibited (Streptococcus; [10]) | M.I.C., cumulative number of strains inhibited (Streptococcus; [8]) | M.I.C., cumulative number of strains inhibited (Streptococcus; [9]) | M.I.C., cumulative number of strains inhibited (Enterococcus; [8]) | Antibacterial activity (in words) [1] | % increase of sodium fluorescein compared with controls (male Wistar rats) | LD50 [3] | LD50 [4] | further results |
| --- | --- | --- | --- | --- | --- | --- | --- | --- | --- | --- | --- | --- | --- | --- | --- | --- | --- | --- | --- |
| C1N2CN3CN1CN(C2)C3.CC(=O)N1CSCC1C(=O)O (centres unmarked) [AFP 829, hexamethylenetetramine-N-acetyl-thiazolidine-4-carboxylate] | 10 strains | 10 strains | 10 strains | 10 strains | 7 strains | 4 strains | 5 strains | 3 strains | 13 strains | 15 strains | 5 strains | 12 strains | 15 strains | 5 strains | active in comparison with all of the microorganisms used | 96.1% | – | – | LD50 (Swiss mice): 1350 mg/kg; LD50 (Wistar rats): 2100 mg/kg; M.I.C., cumulative number of strains inhibited (Salmonella spp; [7]): 1 strains; M.I.C., cumulative number of strains inhibited (Proteus spp; [7]): 3 strains; M.I.C., cumulative number of strains inhibited (Enterococcus; [7]): 1 strains; M.I.C.: no microorganism resistant to concentrations higher than ([1]; all microorganisms used, pH 5.5): ≤ 125 µg/mL; Antibacterial activity (in words) [1, 11]: higher antibacterial activity than hexamethylenetetramine; Concentration in urine (strain of Ps. aeruginosa; 1.5 h): 2000 mcg/ml of urine; Concentration in urine (strain of Ps. aeruginosa; 2.5 h): 4000 mcg/ml of urine; Concentration in urine (strain of Ps. aeruginosa; 4.5 h): 4000 mcg/ml of urine; Concentration in urine (strain of Ps. aeruginosa; 6.5 h): 1000 mcg/ml of urine; Mucosecretolytic activity (in words) (male Wistar rats): powerful mucosecretolytic activity, markedly higher than the standard substance; Mucosecretolytic activity (in words) (male Wistar rats; [11]): remarkable mucosecretolytic properties; Protective activity against liver affections (in words) (liver affections): protective activity against liver affections; Occurrence in urine (in words) [2]: selectively occur in the urine along with the active metabolites thereof |
| C1N2CN3CN1CN(C2)C3 [EMTA, hexamethylenetetramine] | 9 strains | 10 strains | 10 strains | 8 strains | 6 strains | 4 strains | 5 strains | 1 strains | 10 strains | 14 strains | 7 strains | 11 strains | 13 strains | 4 strains | slightly less active | – | 1500 mg/kg | 1050 mg/kg | M.I.C., cumulative number of strains inhibited (Salmonella spp; [9]): 10 strains; M.I.C., cumulative number of strains inhibited (E. coli; [9]): 10 strains; M.I.C., cumulative number of strains inhibited (Klebsiella spp; [9]): 7 strains; M.I.C., cumulative number of strains inhibited (Citrobacter spp; [9]): 3 strains; M.I.C., cumulative number of strains inhibited (Staphylococcus aureus; [12]): 15 strains; M.I.C., cumulative number of strains inhibited (Streptococcus; [12]): 14 strains; M.I.C., cumulative number of strains inhibited (Streptococcus; 500 mcg/ml (EMTA; AFP 829 equimolar)): 15 strains; M.I.C., cumulative number of strains inhibited (Enterococcus; [9]): 5 strains; Converted to formaldehyde in acid urine [5]: about 15%; Eliminated unchanged in the urine [5]: 90%; Occurrence in urine (in words) [6]: selectively occur in the urine along with the active metabolites thereof |
| O=C(O)C1CSCN1 (centres unmarked) [TCA, thiazolidine-4-carboxylic acid] | – | – | – | – | – | – | – | – | – | – | – | – | – | – | – | – | 400 mg/kg | 800 mg/kg | – |
| carboxymethylcysteine | – | – | – | – | – | – | – | – | – | – | – | – | – | – | – | 33.4% | – | – | – |
